Test results: PubChem BioAssay AID248 (DTP/NCI, 2004)
Several values for one entry are separate records, joined by “and”; a condition that tells them apart may be missing. Identical values can stand only once. Toxic doses and inconclusive results are not listed. Rule as the data show it: active = T/C of 150% or more; inactive = T/C below 125%.

Test system: L1210 leukemia ip in BDF1 mice, survival T/C
Experiment: NCI In Vivo Anticancer Drug Screen. Data for tumor model L1210 Leukemia (intraperitoneal) in B6D2F1 (BDF1) mice
Details: endpoint: mean survival time, higher = longer survival
In short: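 Transplanted-tumor mice were given test agent; controls received vehicle only. Survival readings from the two groups were divided (treated over control).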

[1] = dose: 75.0 mg/kg/injection, schedule: Q01DX001 (ip), vehicle: saline
[2] = dose: 150.0 mg/kg/injection, schedule: Q01DX001 (ip), vehicle: saline
[3] = dose: 50.0 mg/kg/injection, schedule: Q01DX009 (ip), vehicle: saline
[4] = dose: 100.0 mg/kg/injection, schedule: Q01DX009 (ip), vehicle: saline
[5] = dose: 100.0 mg/kg/injection, schedule: Q01DX009 (ip), vehicle: Klucel (hydroxypropylcellulose) (HPC)
[6] = dose: 400.0 mg/kg/injection, schedule: Q01DX009 (ip), vehicle: Klucel (hydroxypropylcellulose) (HPC)
[7] = dose: 100.0 mg/kg/injection, schedule: Q04DX003 (ip), vehicle: Klucel (hydroxypropylcellulose) (HPC)
[8] = dose: 50.0 mg/kg/injection, schedule: Q01DX009 (ip), vehicle: Klucel (hydroxypropylcellulose) (HPC)
[9] = dose: 200.0 mg/kg/injection, schedule: Q01DX009 (ip), vehicle: Klucel (hydroxypropylcellulose) (HPC)

Measured: T/C

COc1ccccc1C1CCCCCCC1OS(=O)(=O)c1ccc(C)cc1 (centres undefined)
inactive: dose: 18.75 mg/kg/injection, schedule: Q01DX009 (ip), vehicle: saline 97 % of control | dose: 37.5 mg/kg/injection, schedule: Q01DX009 (ip), vehicle: saline 95 % of control | dose: 75.0 mg/kg/injection, schedule: Q01DX001 (ip), vehicle: acetone 89 % of control | [1] 90 % of control | dose: 75.0 mg/kg/injection, schedule: Q01DX009 (ip), vehicle: saline 90 % of control | dose: 75.0 mg/kg/injection, schedule: Q04DX003 (ip), vehicle: saline 88 % of control | dose: 112.0 mg/kg/injection, schedule: Q01DX009 (ip), vehicle: saline 103 % of control | [2] 93 % of control | dose: 150.0 mg/kg/injection, schedule: Q04DX003 (ip), vehicle: saline 92 % of control | dose: 170.0 mg/kg/injection, schedule: Q01DX009 (ip), vehicle: saline 96 % of control | dose: 255.0 mg/kg/injection, schedule: Q01DX009 (ip), vehicle: saline 100 % of control | dose: 300.0 mg/kg/injection, schedule: Q01DX001 (ip), vehicle: acetone 89 % of control | dose: 300.0 mg/kg/injection, schedule: Q01DX001 (ip), vehicle: saline 92 % of control

Cc1nnc(S(=O)(=O)c2ccc(N=Nc3c(N)nc(N)nc3N)cc2)s1
inactive: dose: 100.0 mg/kg/injection, schedule: Q01DX001 (ip), vehicle: carboxymethylcellulose (CMC) 92 % of control | dose: 200.0 mg/kg/injection, schedule: Q01DX001 (ip), vehicle: carboxymethylcellulose (CMC) 97 % of control | dose: 400.0 mg/kg/injection, schedule: Q01DX001 (ip), vehicle: carboxymethylcellulose (CMC) 94 % of control

CCOC(=O)C[n+]1ccccc1
inactive: dose: 50.0 mg/kg/injection, schedule: Q01DX009 (ip), vehicle: saline with Tween-80 98 % of control | [3] 96 % of control | dose: 100.0 mg/kg/injection, schedule: Q01DX009 (ip), vehicle: saline with Tween-80 93 % of control | [4] 102 % of control | dose: 200.0 mg/kg/injection, schedule: Q01DX009 (ip), vehicle: saline with Tween-80 91 % of control

CCOc1ccccc1N1C(=O)C=CC1=O
inactive: dose: 12.5 mg/kg/injection, schedule: Q04DX002 (ip), vehicle: saline with Tween-80 96 % of control | dose: 25.0 mg/kg/injection, schedule: Q04DX002 (ip), vehicle: saline with Tween-80 109 % of control

Cc1nc(C(=O)O)c(=O)[nH]c1C
inactive: dose: 50.0 mg/kg/injection, schedule: Q01DX009 (ip), vehicle: water 103 % of control | dose: 100.0 mg/kg/injection, schedule: Q01DX009 (ip), vehicle: water 103 % of control | dose: 100.0 mg/kg/injection, schedule: Q04DX003 (ip), vehicle: water 102 % of control | dose: 200.0 mg/kg/injection, schedule: Q01DX009 (ip), vehicle: water 101 % of control | dose: 200.0 mg/kg/injection, schedule: Q04DX003 (ip), vehicle: water 101 % of control

Nc1nc(-c2cc(Br)ccc2N=NN2CCCCC2)nc2ccc(Br)cc12
inactive: dose: 100.0 mg/kg/injection, schedule: Q04DX002 (ip), vehicle: Klucel (hydroxypropylcellulose) (HPC) 86 % of control | dose: 200.0 mg/kg/injection, schedule: Q04DX002 (ip), vehicle: Klucel (hydroxypropylcellulose) (HPC) 89 % of control | dose: 400.0 mg/kg/injection, schedule: Q04DX002 (ip), vehicle: Klucel (hydroxypropylcellulose) (HPC) 99 % of control

COc1ccccc1NC(=O)c1ccccc1
inactive: [5] 89 % of control | [6] 95 % of control

CCS(=O)(=O)/C=C/c1ccc(NC(C)=O)cc1
inactive: dose: 100.0 mg/kg/injection, schedule: Q04DX002 (ip), vehicle: saline with Tween-80 122 % of control | dose: 200.0 mg/kg/injection, schedule: Q04DX002 (ip), vehicle: saline with Tween-80 98 % of control | dose: 400.0 mg/kg/injection, schedule: Q04DX002 (ip), vehicle: saline with Tween-80 91 % of control

C1CN2CCN1CC2.[Cl][Ni+][Cl]
inactive: dose: 1.56 mg/kg/injection, schedule: Q01DX009 (ip), vehicle: saline 101 % of control | dose: 2.0 mg/kg/injection, schedule: Q04DX003 (ip), vehicle: saline 109 % of control | dose: 3.12 mg/kg/injection, schedule: Q01DX009 (ip), vehicle: saline 101 % of control | dose: 4.0 mg/kg/injection, schedule: Q04DX003 (ip), vehicle: saline 106 % of control | dose: 6.25 mg/kg/injection, schedule: Q01DX009 (ip), vehicle: saline 94 % of control | dose: 8.0 mg/kg/injection, schedule: Q04DX003 (ip), vehicle: saline 97 % of control | dose: 12.5 mg/kg/injection, schedule: Q01DX009 (ip), vehicle: saline 92 % of control | dose: 16.0 mg/kg/injection, schedule: Q04DX003 (ip), vehicle: saline 105 % of control

O=C1N/C(=N/OCc2ccc([N+](=O)[O-])cc2)CC(NOCc2ccc([N+](=O)[O-])cc2)N1 (centres undefined)
inactive: dose: 100.0 mg/kg/injection, schedule: Q04DX003 (ip), vehicle: saline with Tween-80 91 % of control | dose: 200.0 mg/kg/injection, schedule: Q04DX003 (ip), vehicle: saline with Tween-80 101 % of control | dose: 400.0 mg/kg/injection, schedule: Q04DX003 (ip), vehicle: saline with Tween-80 89 % of control

Cn1c(=N)sc2ccc3ccccc3c21
inactive: dose: 12.5 mg/kg/injection, schedule: Q04DX003 (ip), vehicle: Klucel (hydroxypropylcellulose) (HPC) 90 % of control | dose: 25.0 mg/kg/injection, schedule: Q04DX003 (ip), vehicle: Klucel (hydroxypropylcellulose) (HPC) 91 % of control | dose: 50.0 mg/kg/injection, schedule: Q04DX003 (ip), vehicle: Klucel (hydroxypropylcellulose) (HPC) 98 % of control | [7] 86 % of control

O=C(O)c1cccc(F)c1CBr
inactive: dose: 75.0 mg/kg/injection, schedule: Q01DX001 (ip), vehicle: carboxymethylcellulose (CMC) 104 % of control

COc1c2c(cc3c(C)cc(=O)n(C)c13)c(C)cc(=O)n2C
inactive: [7] 99 % of control | dose: 200.0 mg/kg/injection, schedule: Q04DX003 (ip), vehicle: Klucel (hydroxypropylcellulose) (HPC) 92 % of control | dose: 400.0 mg/kg/injection, schedule: Q04DX003 (ip), vehicle: Klucel (hydroxypropylcellulose) (HPC) 101 % of control

NC(N)=N/N=C/c1cc(Br)ccc1O
inactive: [1] 102 % of control | [2] 98 % of control

O=C(O)c1ccc(N=Nc2nc3[nH]c(=O)[nH]c(=O)c3[nH]2)cc1
inactive: [8] 97 % of control | [5] 97 % of control | [9] 87 % of control

CCN(CC)CC(=O)NC(CCN(C)C)(c1cccc2ccccc12)C(C)C (centres undefined)
inactive: [3] 94 % of control | [4] 112 % of control | dose: 100.0 mg/kg/injection, schedule: Q04DX003 (ip), vehicle: saline 105 % of control | dose: 200.0 mg/kg/injection, schedule: Q01DX009 (ip), vehicle: saline 100 % of control | dose: 200.0 mg/kg/injection, schedule: Q04DX003 (ip), vehicle: saline 105 % of control

Cc1cc(S(=O)(=O)O)cc(N)c1N
inactive: dose: 100.0 mg/kg/injection, schedule: Q01DX001 (ip), vehicle: Klucel (hydroxypropylcellulose) (HPC) 105 % of control | dose: 200.0 mg/kg/injection, schedule: Q01DX001 (ip), vehicle: Klucel (hydroxypropylcellulose) (HPC) 98 % of control | dose: 400.0 mg/kg/injection, schedule: Q01DX001 (ip), vehicle: Klucel (hydroxypropylcellulose) (HPC) 91 % of control

CC(Br)C(Br)(C(=O)O)c1ccccc1 (centres undefined)
inactive: dose: 100.0 mg/kg/injection, schedule: Q04DX003 (ip), vehicle: other 91 % of control | dose: 200.0 mg/kg/injection, schedule: Q04DX003 (ip), vehicle: other 95 % of control | dose: 400.0 mg/kg/injection, schedule: Q04DX003 (ip), vehicle: other 96 % of control

C/C(=N/OC(=O)N(C)C)c1cccs1
inactive: dose: 5.0 mg/kg/injection, schedule: Q01DX001 (ip), vehicle: other 103 % of control | dose: 10.0 mg/kg/injection, schedule: Q01DX001 (ip), vehicle: other 94 % of control | dose: 20.0 mg/kg/injection, schedule: Q01DX001 (ip), vehicle: other 97 % of control | dose: 40.0 mg/kg/injection, schedule: Q01DX001 (ip), vehicle: other 92 % of control

COc1ccc([N+](=O)[O-])cc1NC(=O)Nc1ccc(SC)cc1
inactive: [8] 90 % of control | [5] 89 % of control | [9] 90 % of control and 92 % of control | [6] 98 % of control
